Read-outs that look alike come from different tables or passages of the source.
Key:
Test in all cases: Post-emergent Test III, herbicidal activity in wheat and barley
Type in all cases: in vivo
[1] = system: HORSS: barley, including spring and winter (Hordeum vulgare); details: for GR20 HORSS: 21 days after application, probit analysis
Method in brief: (§1)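 Plants at the second to third true-leaf stage, grown in a greenhouse at about 18/17 °C with a 14 h photoperiod, were sprayed post-emergence at 187 L/ha with the high rate and ½× to 1/16× serial dilutions in an acetone/DMSO/crop-oil/surfactant carrier. Injury was rated visually at 21 d on a 0–100% scale, and GR20–GR90 were derived by probit analysis.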

[2] = system: KCHSC: kochia (Kochia scoparia); details: for pest or weed control at 35 g/ha: 35 g ai/ha; for pest or weed control at 70 g/ha: 70 g ai/ha; for GR50 KCHSC / GR80 KCHSC: 21 days after application, probit analysis
Method in brief: as §1

[3] = system: MATSS: scented mayweed (Matricaria chamomilla), pineappleweed (Matricaria matricarioides); details: for pest or weed control at 35 g/ha: 35 g ai/ha; for pest or weed control at 70 g/ha: 70 g ai/ha; for GR50 MATSS / GR80 MATSS: 21 days after application, probit analysis
Method in brief: as §1

[4] = system: SASKR: Russian thistle (Salsola iberica); details: Post-emergent Test III
Method in brief: as §1

[5] = system: TRZSS: wheat, including spring and winter (Triticum aestivum); details: for GR20 TRZSS: 21 days after application, probit analysis
Method in brief: as §1

[6] = system: VIOSS: wild pansy (Viola tricolor), field violet (Viola arvensis); details: Post-emergent Test III
Method in brief: as §1

[7] = system: APESV: bentgrass (Apera spica-venti)
Method in brief: as §1

LAMSS = system: LAMSS
Method in brief: as §1

[8] = system: SETVI: green foxtail (Setaria viridis)
Method in brief: as §1

[9] = system: VERPE: bird's-eye speedwell (veronica persica)
Method in brief: as §1

[10] = Post-emergent Test III, 35 g ai/ha
[11] = Post-emergent Test III, 70 g ai/ha
[12] = Post-emergent Test III, dose for 20% growth reduction
[13] = Bassia scoparia, post-emergence, 504 h, Post-emergent Test III, read-out: Visual Growth Reduction (%) 21 Days After Application, KCHSC
[14] = Post-emergent Test III, dose for 50% growth reduction
[15] = Post-emergent Test III, dose for 80% growth reduction
[16] = Matricaria chamomilla, post-emergence, 504 h, Post-emergent Test III, read-out: Visual Growth Reduction (%) 21 Days After Application, MATSS
[17] = 21 days after application, dose for 50% growth reduction, probit analysis
[18] = 21 days after application, dose for 80% growth reduction, probit analysis
[19] = probit analysis, dose for growth reduction of 50 percent, 21 days after application
[20] = probit analysis, dose for growth reduction of 80 percent, 21 days after application
[21] = dose for growth reduction of 20 percent, crop
[22] = Bassia scoparia, post-emergence, 504 h, read-out: Visual Growth Reduction (%) 21 Days After Application KCHSC
[23] = dose for growth reduction of 50 percent
[24] = dose for growth reduction of 80 percent
[25] = Matricaria chamomilla, post-emergence, 504 h, read-out: Visual Growth Reduction (%) 21 Days After Application MATSS

With COC(=O)c1nc(-c2ccc(C(F)(F)F)c(F)c2)c(F)c(N)c1Cl [Compound 165] the “Visual Growth Reduction (%) 21 Days After Application, HORSS” value [1, 10] was “C (75-84)”, the “Visual Growth Reduction (%) 21 Days After Application, HORSS” value [1, 11] was “B (85-94)” and the “GR20 HORSS” value [1, 12] was 9 g ai/ha. The pest or weed control at 35 g/ha [2, 13] was 85 to 94%, the pest or weed control at 70 g/ha [2, 13] was 85 to 94% and the “GR50 KCHSC” value [2, 14] was 9 g ai/ha. For the same compound, the “GR80 KCHSC” value [2, 15] was 30 g ai/ha, the pest or weed control at 35 g/ha [3, 16] was 0 to 29% and the pest or weed control at 70 g/ha [3, 16] was 45 to 59%. For the same compound, the “GR50 MATSS” value [3, 14] was 81 g ai/ha, the “GR80 MATSS” value [3, 15] was >140 g ai/ha and the “Visual Growth Reduction (%) 21 Days After Application, SASKR” value ([4]; 35 g ai/ha) was “C (75-84)”. For the same compound, the “Visual Growth Reduction (%) 21 Days After Application, SASKR” value ([4]; 70 g ai/ha) was “B (85-94)”, the “GR50 SASKR” value [4, 17] was 4 g ai/ha and the “GR80 SASKR” value [4, 18] was 46 g ai/ha. The “Visual Growth Reduction (%) 21 Days After Application, TRZSS” value [5, 10] was “D (60-74)”, the “Visual Growth Reduction (%) 21 Days After Application, TRZSS” value [5, 11] was “C (75-84)” and the “GR20 TRZSS” value [5, 12] was 8 g ai/ha. For the same compound, the “Visual Growth Reduction (%) 21 Days After Application, VIOSS” value ([6]; 35 g ai/ha) was “F (30-44)”, the “Visual Growth Reduction (%) 21 Days After Application, VIOSS” value ([6]; 70 g ai/ha) was “D (60-74)” and the “GR50 VIOSS” value [6, 17] was 55 g ai/ha. The “GR80 VIOSS” value [6, 18] was >140 g ai/ha.
With Nc1c(F)c(-c2ccc(Cl)c(F)c2)nc(C(=O)O)c1Cl [Compound 217] the pest or weed control at 35 g/ha ([7]; Apera spica-venti, post-emergence, 504 h, 35 g ai/ha, read-out: Visual Growth Reduction (%) 21 Days After Application APESV) was 85 to 94%, the pest or weed control at 70 g/ha ([7]; Apera spica-venti, post-emergence, 504 h, 70 g ai/ha, read-out: Visual Growth Reduction (%) 21 Days After Application APESV) was 85 to 94% and the pest or weed control at 140 g/ha ([7]; Apera spica-venti, post-emergence, 504 h, 140 g ai/ha, read-out: Visual Growth Reduction (%) 21 Days After Application APESV) was 95 to 100%. For the same compound, the “GR50 APESV” value [7, 19] was 6 g ai/ha, the “GR80 APESV” value [7, 20] was 15 g ai/ha and the pest or weed control at 35 g/ha ([1]; Hordeum vulgare, post-emergence, 504 h, 35 g ai/ha, read-out: Visual Growth Reduction (%) 21 Days After Application HORSS) was 75 to 84%. For the same compound, the pest or weed control at 70 g/ha ([1]; Hordeum vulgare, post-emergence, 504 h, 70 g ai/ha, read-out: Visual Growth Reduction (%) 21 Days After Application HORSS) was 75 to 84%, the pest or weed control at 140 g/ha ([1]; Hordeum vulgare, post-emergence, 504 h, 140 g ai/ha, read-out: Visual Growth Reduction (%) 21 Days After Application HORSS) was 75 to 84% and the “GR20 HORSS” value [1, 21] was 7 g ai/ha. It also gave a pest or weed control at 35 g/ha [2, 22] of 85 to 94%, a pest or weed control at 70 g/ha [2, 22] of 95 to 100% and a pest or weed control at 140 g/ha ([2]; Bassia scoparia, post-emergence, 504 h, 140 g ai/ha, read-out: Visual Growth Reduction (%) 21 Days After Application KCHSC) of 95 to 100%. The “GR50 KCHSC” value [2, 23] was 2 g ai/ha, the “GR80 KCHSC” value [2, 24] was 6 g ai/ha and the pest or weed control at 35 g/ha (LAMSS; post-emergence, 504 h, 35 g ai/ha, read-out: Visual Growth Reduction (%) 21 Days After Application LAMSS) was 95 to 100%. For the same compound, the pest or weed control at 70 g/ha (LAMSS; post-emergence, 504 h, 70 g ai/ha, read-out: Visual Growth Reduction (%) 21 Days After Application LAMSS) was 95 to 100%, the pest or weed control at 140 g/ha (LAMSS; post-emergence, 504 h, 140 g ai/ha, read-out: Visual Growth Reduction (%) 21 Days After Application LAMSS) was 95 to 100% and the “GR50 LAMSS” value (LAMSS; [19]) was 1 g ai/ha. For the same compound, the “GR80 LAMSS” value (LAMSS; [20]) was 2 g ai/ha, the pest or weed control at 35 g/ha [3, 25] was 85 to 94% and the pest or weed control at 70 g/ha [3, 25] was 85 to 94%. For the same compound, the pest or weed control at 140 g/ha ([3]; Matricaria chamomilla, post-emergence, 504 h, 140 g ai/ha, read-out: Visual Growth Reduction (%) 21 Days After Application MATSS) was 85 to 94%, the “GR50 MATSS” value [3, 23] was 34 g ai/ha and the “GR80 MATSS” value [3, 24] was >140 g ai/ha. The pest or weed control at 35 g/ha ([8]; Setaria viridis, post-emergence, 504 h, 35 g ai/ha, read-out: Visual Growth Reduction (%) 21 Days After Application SETVI) was 75 to 84%, the pest or weed control at 70 g/ha ([8]; Setaria viridis, post-emergence, 504 h, 70 g ai/ha, read-out: Visual Growth Reduction (%) 21 Days After Application SETVI) was 75 to 84% and the pest or weed control at 140 g/ha ([8]; Setaria viridis, post-emergence, 504 h, 140 g ai/ha, read-out: Visual Growth Reduction (%) 21 Days After Application SETVI) was 75 to 84%. The “GR50 SETVI” value [8, 19] was 46 g ai/ha, the “GR80 SETVI” value [8, 20] was >140 g ai/ha and the pest or weed control at 35 g/ha ([5]; Triticum aestivum, post-emergence, 504 h, 35 g ai/ha, read-out: Visual Growth Reduction (%) 21 Days After Application TRZSS) was 75 to 84%. The pest or weed control at 70 g/ha ([5]; Triticum aestivum, post-emergence, 504 h, 70 g ai/ha, read-out: Visual Growth Reduction (%) 21 Days After Application TRZSS) was 75 to 84%, the pest or weed control at 140 g/ha ([5]; Triticum aestivum, post-emergence, 504 h, 140 g ai/ha, read-out: Visual Growth Reduction (%) 21 Days After Application TRZSS) was 85 to 94% and the “GR20 TRZSS” value [5, 21] was 2 g ai/ha. The pest or weed control at 35 g/ha ([9]; Veronica persica, post-emergence, 504 h, 35 g ai/ha, read-out: Visual Growth Reduction (%) 21 Days After Application VERPE) was 60 to 74%, the pest or weed control at 70 g/ha ([9]; Veronica persica, post-emergence, 504 h, 70 g ai/ha, read-out: Visual Growth Reduction (%) 21 Days After Application VERPE) was 60 to 74% and the pest or weed control at 140 g/ha ([9]; Veronica persica, post-emergence, 504 h, 140 g ai/ha, read-out: Visual Growth Reduction (%) 21 Days After Application VERPE) was 60 to 74%. For the same compound, the “GR50 VERPE” value [9, 19] was 19 g ai/ha and the “GR80 VERPE” value [9, 20] was 73 g ai/ha.

Source: patent US9113629B2, “4-amino-6-(4-substituted-phenyl)-picolinates and 6-amino-2-(4-substituted-phenyl)-pyrimidine-4-carboxylates and their use as herbicides” (DOW AGROSCIENCES LLC, priority 2013, dated 2015)
